Assay results as given in EP0033980A1, “Derivatives of 2-methylpropionic acid, process for their preparation and pharmaceutical compositions containing them” (SCHIAPPARELLI FARMACEUTICI S.p.A., priority 1980, dated 1981).

System: Triglycerid- und Cholesteringehaltes im Blut
Test: Reduction of blood triglyceride and cholesterol content after 10 days of daily peroral treatment, versus untreated controls
Type: in vivo
Conditions: Ratten, 10 Tage, vs. Blindversuche
Source text: Diese Wirkungen wurden gegenüber der in der Therapie der Hyperlipidämie (übermäßiger Lipidgehalt im Blut) und Hypercholesterinämie (übermäßiger Cholesteringehalt im Blut) verbreitet angewandten und anerkannt gut wirksamen bekannten Vergleichssubstanz 2-(4'-Chlorphenoxy)-2-me- thylpropionsäure [Clofibrat] bestimmt.
Es wurden vorherbestimmte tägliche Dosen einer erfin-dungsgemäßen Verbindung Laboratoriumstieren (üblicherweise in Gruppen von je 6 Tiere unterteilten Ratten) peroral verabreicht, während die Vergleichssubstanz 2-(4'-Chlor- phenoxy)-2-methylpropionsäure [Clofibrat] in einser Dosis von 130 mg/kg/Tag ebenfalls peroral verabreicht wurde. Die Behandlung wurde 10 Tage fortgesetzt, dann wurden die Tiere geopfert und ihr Blut wurde gesammelt und der Bestimmung seines Triglycerid- und Cholesteringehaltes unterzogen. Die erhaltenen Ergebnisse, ausgedrückt als prozentuale Verminderung des Triglycerid- und Cholesteringehaltes im Blut (prozentuale Hemmung der Bildung des Triglycerid- und Cholesteringehaltes im Blut) gegenüber den Blindversuchen (das heißt den Ratten, welchen weder eine erfindungsgemäße Verbindung noch die Vergleichssubstanz verabreicht wurde), sind in der folgenden Tabelle zusammengestellt.

## CCOC(=O)C(C)(C)Oc1ccc(-c2ccc(F)cc2F)cc1 [Beispiel 2, 2-(2",4"-Difluordiphenyl-4'-yloxy)-2--methylpropionsäureäthylester]
peroral, 35 mg/kg/Tag
  Verminderung des Cholesteringehaltes in %: 23%
  Verminderung des Triglyceridgehaltes in %: 36%
peroral, 50 mg/kg/Tag
  Verminderung des Cholesteringehaltes in %: 30%
  Verminderung des Triglyceridgehaltes in %: 29%
peroral, 2,5 mg/kg/Tag
  Verminderung des Cholesteringehaltes in %: 11%
  Verminderung des Triglyceridgehaltes in %: 22%
